According to US20250332139A1, “PS[…] AND THEIR USE FOR TREATING […] AND NE[…] DISORDERS” (Transcend Therapeutics, Inc., priority 2021, published 2025):

Key:
168 GPCRs [1] = biological target: T1, 168 GPCRs (Homo sapiens, UniProt O95977); test: β-arrestin GPCR screen (PathHunter/GPCRmax), agonist mode; format: cell-based; settings: GPCR EDG6; Agonist mode; 10 uM
T1 construct: host or cells: PathHunter cell lines
Procedure: (§1) For agonist determination, cells were incubated with sample to induce response. […] Vehicle concentration was 1%.

168 GPCRs [2] = biological target: T2, 168 GPCRs (Homo sapiens, UniProt P32238); test: as above; format: cell-based; settings: CCKAR; Agonist; 10 uM
T2 construct: host or cells: PathHunter cell lines
Procedure: as §1

168 GPCRs [3] = biological target: T3, 168 GPCRs (Homo sapiens, UniProt P32246); test: as above; format: cell-based; settings: CCR1; Agonist; 1 uM
T3 construct: host or cells: PathHunter cell lines
Procedure: as §1

168 GPCRs [4] = biological target: T4, 168 GPCRs (Homo sapiens, UniProt P33032); test: as above; format: cell-based
T4 construct: host or cells: PathHunter cell lines
Procedure: as §1

168 GPCRs [5] = biological target: T5, 168 GPCRs (Homo sapiens, UniProt P46092); test: as above; format: cell-based; settings: CCR10; Agonist; 10 uM
T5 construct: host or cells: PathHunter cell lines
Procedure: as §1

168 GPCRs [6] = biological target: 168 GPCRs (Homo sapiens, UniProt O95838); test: β-arrestin GPCR screen (PathHunter/GPCRmax), antagonist mode; settings: GLP2R; Antagonist; 1 uM
168 GPCRs [7] = biological target: 168 GPCRs (Homo sapiens, UniProt P08172); test: as above; settings: CHRM2; Antagonist; 1 uM
168 GPCRs [8] = biological target: 168 GPCRs (Homo sapiens, UniProt P21462); test: as above; settings: FPR1; Antagonist; 1 uM
168 GPCRs [9] = biological target: 168 GPCRs (Homo sapiens, UniProt P29371); test: as above; settings: GPCR TACR3; Antagonist mode; 10 uM
168 GPCRs [10] = biological target: 168 GPCRs (Homo sapiens, UniProt P32249); test: as above; settings: GPCR EBI2; Antagonist mode; 10 uM
168 GPCRs [11] = biological target: 168 GPCRs (Homo sapiens, UniProt P41586); test: as above; settings: ADCYAP1R1; Antagonist; 1 uM
168 GPCRs [12] = biological target: 168 GPCRs (Homo sapiens, UniProt P41587); test: as above; settings: GPCR VIPR2; Antagonist mode; 10 uM
168 GPCRs [13] = biological target: 168 GPCRs (Homo sapiens, UniProt P41968); test: as above; settings: GPCR MC3R; Antagonist mode; 10 uM
168 GPCRs [14] = biological target: 168 GPCRs (Homo sapiens, UniProt P47211); test: as above; settings: GPCR GALR1; Antagonist mode; 10 uM
168 GPCRs [15] = biological target: 168 GPCRs (Homo sapiens, UniProt P47872); test: as above; settings: SCTR; Antagonist; 1 uM
168 GPCRs [16] = biological target: 168 GPCRs (Homo sapiens, UniProt P48039); test: as above; settings: GPCR MTNR1A; Antagonist mode; 10 uM
168 GPCRs [17] = biological target: 168 GPCRs (Homo sapiens, UniProt P50391); test: as above; settings: PPYR1; Antagonist; 1 uM
168 GPCRs [18] = biological target: 168 GPCRs (Homo sapiens, UniProt Q01726); test: as above; settings: GPCR MC1R; Antagonist mode; 10 uM
168 GPCRs [19] = biological target: 168 GPCRs (Homo sapiens, UniProt Q15077); test: as above; settings: P2RY6; Antagonist; 1 uM
168 GPCRs [20] = biological target: 168 GPCRs (Homo sapiens, UniProt Q8NFJ6); test: as above; settings: GPCR PROKR2; Antagonist mode; 10 uM
168 GPCRs [21] = biological target: 168 GPCRs (Homo sapiens, UniProt Q8TDS5); test: as above; settings: GPCR OXER1; Antagonist mode; 10 uM
168 GPCRs [22] = biological target: 168 GPCRs (Homo sapiens, UniProt Q969F8); test: as above; settings: KISS1R; Antagonist; 1 uM
168 GPCRs [23] = biological target: 168 GPCRs (Homo sapiens, UniProt Q96RI0); test: as above; settings: F2RL3; Antagonist; 1 uM
168 GPCRs [24] = biological target: 168 GPCRs (Homo sapiens, UniProt Q99500); test: as above; settings: GPCR EDG3; Antagonist mode; 10 uM
168 GPCRs [25] = biological target: 168 GPCRs (Homo sapiens, UniProt Q99705); test: as above; settings: GPCR MCHR1; Antagonist mode; 10 uM
168 GPCRs [26] = biological target: 168 GPCRs (Homo sapiens, UniProt Q9HBW0); test: as above; settings: EDG4; Antagonist; 1 uM
Chain of 168 GPCRs (Homo sapiens, UniProt Q9HBW0) (Q9HBW0 whole entry): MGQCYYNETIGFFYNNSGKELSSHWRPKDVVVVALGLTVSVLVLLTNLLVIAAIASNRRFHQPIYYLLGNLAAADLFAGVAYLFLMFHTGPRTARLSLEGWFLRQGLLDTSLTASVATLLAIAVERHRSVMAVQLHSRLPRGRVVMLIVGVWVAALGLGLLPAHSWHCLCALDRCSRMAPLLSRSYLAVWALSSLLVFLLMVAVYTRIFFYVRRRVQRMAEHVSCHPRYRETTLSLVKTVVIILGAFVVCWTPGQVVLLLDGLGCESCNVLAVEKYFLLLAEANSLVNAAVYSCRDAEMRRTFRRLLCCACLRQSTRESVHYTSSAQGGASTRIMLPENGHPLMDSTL

T4 sequence (P33032 whole entry): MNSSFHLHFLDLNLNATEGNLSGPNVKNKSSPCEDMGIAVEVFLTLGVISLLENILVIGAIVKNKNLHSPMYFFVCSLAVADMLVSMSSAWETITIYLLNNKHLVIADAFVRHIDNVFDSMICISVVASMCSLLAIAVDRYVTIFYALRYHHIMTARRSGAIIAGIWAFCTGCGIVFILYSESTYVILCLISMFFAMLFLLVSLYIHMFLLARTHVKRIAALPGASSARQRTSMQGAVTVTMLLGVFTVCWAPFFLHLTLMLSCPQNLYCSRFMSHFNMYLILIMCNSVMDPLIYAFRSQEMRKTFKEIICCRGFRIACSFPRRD
T5 sequence (P46092 whole entry): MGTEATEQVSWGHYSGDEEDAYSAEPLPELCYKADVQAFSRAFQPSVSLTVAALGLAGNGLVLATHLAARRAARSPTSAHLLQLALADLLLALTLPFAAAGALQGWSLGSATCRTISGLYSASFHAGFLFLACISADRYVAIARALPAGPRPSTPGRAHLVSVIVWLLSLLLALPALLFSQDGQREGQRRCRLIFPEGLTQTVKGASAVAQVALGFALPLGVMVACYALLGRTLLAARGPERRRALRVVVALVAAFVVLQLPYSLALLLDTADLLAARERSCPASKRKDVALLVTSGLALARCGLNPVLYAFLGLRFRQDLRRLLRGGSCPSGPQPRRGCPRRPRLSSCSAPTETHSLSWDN
Chain of 168 GPCRs (Homo sapiens, UniProt O95838) (O95838 whole entry): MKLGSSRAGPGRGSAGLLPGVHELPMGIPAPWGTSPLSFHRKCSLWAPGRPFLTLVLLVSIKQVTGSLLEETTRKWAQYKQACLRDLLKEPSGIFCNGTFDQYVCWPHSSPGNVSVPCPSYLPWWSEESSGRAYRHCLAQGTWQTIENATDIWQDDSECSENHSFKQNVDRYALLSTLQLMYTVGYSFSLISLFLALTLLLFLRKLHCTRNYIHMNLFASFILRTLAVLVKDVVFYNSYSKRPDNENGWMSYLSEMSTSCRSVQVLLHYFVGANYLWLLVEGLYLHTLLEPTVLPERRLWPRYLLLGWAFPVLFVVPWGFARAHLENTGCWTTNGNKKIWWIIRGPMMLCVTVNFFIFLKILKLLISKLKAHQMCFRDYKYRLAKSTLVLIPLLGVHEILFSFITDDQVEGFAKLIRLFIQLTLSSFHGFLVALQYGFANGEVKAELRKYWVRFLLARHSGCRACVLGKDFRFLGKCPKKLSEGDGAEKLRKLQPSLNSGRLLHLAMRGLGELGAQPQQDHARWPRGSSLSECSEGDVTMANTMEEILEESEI
Chain of 168 GPCRs (Homo sapiens, UniProt P41587) (P41587 24-438): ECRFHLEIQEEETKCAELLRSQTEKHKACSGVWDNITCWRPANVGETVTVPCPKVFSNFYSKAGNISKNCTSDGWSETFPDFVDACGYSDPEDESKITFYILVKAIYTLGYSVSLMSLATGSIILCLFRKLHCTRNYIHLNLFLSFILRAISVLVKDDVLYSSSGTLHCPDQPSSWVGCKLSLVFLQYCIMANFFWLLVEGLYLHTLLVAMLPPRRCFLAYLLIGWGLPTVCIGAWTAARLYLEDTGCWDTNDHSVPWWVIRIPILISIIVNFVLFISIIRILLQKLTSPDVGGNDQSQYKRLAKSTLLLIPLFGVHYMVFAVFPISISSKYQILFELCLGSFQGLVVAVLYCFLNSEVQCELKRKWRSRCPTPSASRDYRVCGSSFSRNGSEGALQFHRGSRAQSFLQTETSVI
T3 sequence (P32246 whole entry): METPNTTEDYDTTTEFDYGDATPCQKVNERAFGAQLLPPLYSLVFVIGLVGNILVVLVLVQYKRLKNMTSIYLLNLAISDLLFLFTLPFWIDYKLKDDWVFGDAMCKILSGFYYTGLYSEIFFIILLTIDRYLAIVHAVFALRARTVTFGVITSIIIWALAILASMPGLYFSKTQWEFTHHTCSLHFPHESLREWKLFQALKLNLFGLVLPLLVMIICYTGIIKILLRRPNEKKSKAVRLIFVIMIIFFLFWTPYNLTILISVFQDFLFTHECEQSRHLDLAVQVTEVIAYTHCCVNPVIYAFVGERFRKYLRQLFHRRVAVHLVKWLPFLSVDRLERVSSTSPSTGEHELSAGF
Chain of 168 GPCRs (Homo sapiens, UniProt P41968) (P41968 whole entry): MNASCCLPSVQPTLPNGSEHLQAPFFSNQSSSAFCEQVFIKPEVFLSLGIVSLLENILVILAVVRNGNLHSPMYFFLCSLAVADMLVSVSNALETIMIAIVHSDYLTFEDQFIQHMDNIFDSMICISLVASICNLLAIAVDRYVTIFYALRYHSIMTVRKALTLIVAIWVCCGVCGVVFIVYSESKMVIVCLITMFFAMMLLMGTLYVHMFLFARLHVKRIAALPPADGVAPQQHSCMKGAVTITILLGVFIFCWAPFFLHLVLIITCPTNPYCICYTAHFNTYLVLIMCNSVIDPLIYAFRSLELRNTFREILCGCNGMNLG
Chain of 168 GPCRs (Homo sapiens, UniProt Q8NFJ6) (Q8NFJ6 whole entry): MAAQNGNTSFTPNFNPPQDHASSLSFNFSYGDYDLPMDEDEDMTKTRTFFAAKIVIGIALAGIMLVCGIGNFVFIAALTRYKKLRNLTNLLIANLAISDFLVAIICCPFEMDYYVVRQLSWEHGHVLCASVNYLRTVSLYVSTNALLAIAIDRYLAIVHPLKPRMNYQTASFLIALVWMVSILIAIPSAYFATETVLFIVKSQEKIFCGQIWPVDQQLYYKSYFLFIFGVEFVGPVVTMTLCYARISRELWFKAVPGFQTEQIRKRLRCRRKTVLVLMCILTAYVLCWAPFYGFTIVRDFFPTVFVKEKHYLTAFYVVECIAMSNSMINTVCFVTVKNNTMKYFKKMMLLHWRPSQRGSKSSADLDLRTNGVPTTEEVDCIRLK
Chain of 168 GPCRs (Homo sapiens, UniProt Q99500) (Q99500 whole entry): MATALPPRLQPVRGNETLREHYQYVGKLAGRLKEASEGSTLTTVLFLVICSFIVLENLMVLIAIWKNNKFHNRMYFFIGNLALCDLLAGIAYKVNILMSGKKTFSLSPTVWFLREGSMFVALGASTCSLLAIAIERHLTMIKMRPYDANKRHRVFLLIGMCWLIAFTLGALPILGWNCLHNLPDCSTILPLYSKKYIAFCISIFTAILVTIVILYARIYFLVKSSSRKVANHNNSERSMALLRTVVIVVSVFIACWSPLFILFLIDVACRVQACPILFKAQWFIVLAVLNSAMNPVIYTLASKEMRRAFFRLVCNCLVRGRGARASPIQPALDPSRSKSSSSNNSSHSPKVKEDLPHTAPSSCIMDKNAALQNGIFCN
Chain of 168 GPCRs (Homo sapiens, UniProt P50391) (P50391 whole entry): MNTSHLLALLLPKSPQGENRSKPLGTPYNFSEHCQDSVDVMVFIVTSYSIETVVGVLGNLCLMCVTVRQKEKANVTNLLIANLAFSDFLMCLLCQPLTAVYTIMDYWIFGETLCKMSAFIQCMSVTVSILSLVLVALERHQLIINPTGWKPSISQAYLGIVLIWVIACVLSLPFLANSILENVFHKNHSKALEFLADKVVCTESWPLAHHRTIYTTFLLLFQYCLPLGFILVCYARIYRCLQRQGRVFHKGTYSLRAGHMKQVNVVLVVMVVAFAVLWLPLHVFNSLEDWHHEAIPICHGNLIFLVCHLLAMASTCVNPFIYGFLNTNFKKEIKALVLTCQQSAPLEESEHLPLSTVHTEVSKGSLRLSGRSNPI
Chain of 168 GPCRs (Homo sapiens, UniProt P48039) (P48039 whole entry): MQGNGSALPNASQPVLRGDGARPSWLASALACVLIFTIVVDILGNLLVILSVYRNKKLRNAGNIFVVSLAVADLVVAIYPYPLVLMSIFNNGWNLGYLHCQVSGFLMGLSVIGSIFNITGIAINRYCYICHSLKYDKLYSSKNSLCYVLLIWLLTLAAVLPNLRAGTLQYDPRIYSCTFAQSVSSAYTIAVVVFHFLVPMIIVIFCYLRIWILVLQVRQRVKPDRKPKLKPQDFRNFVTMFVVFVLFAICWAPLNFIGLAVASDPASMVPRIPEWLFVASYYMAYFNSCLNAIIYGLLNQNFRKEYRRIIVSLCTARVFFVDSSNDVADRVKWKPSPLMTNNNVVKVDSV
Chain of 168 GPCRs (Homo sapiens, UniProt P08172) (P08172 whole entry): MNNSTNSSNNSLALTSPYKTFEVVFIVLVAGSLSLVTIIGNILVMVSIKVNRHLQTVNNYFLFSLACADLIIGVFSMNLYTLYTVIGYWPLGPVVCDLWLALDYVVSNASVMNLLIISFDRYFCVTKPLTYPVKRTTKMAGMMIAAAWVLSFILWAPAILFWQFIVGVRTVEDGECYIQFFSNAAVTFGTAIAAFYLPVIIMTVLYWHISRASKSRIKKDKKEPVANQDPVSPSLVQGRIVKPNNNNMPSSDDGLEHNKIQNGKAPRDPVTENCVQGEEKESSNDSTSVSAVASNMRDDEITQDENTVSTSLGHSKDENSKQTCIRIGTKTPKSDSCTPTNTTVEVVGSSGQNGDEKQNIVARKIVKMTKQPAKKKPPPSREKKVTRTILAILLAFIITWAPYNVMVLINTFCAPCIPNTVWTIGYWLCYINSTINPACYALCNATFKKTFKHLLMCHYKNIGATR

CNC(C)C(=O)c1ccc2c(c1)OCO2 (stereo not drawn) [methylone, 3,4-methylenedioxy-N-methylcathinone]
activity at 10 µM (168 GPCRs [1]): -0.3%
activity at 10 µM (168 GPCRs [2]): -0.3%
activity at 1 µM (168 GPCRs [3]): ~-2%
activity at 10 µM (168 GPCRs [4]; GPCR MC5R, Agonist mode, 10 uM): -8.9%
activity at 1 µM (168 GPCRs [4]; MC5R, Agonist, 1 uM): ~-7%
activity at 10 µM (168 GPCRs [5]): ~-1%
activity at 1 µM (168 GPCRs [6]): 6.4%
activity at 1 µM (168 GPCRs [7]): -18.9%
activity at 1 µM (168 GPCRs [8]): ~-4%
activity at 10 µM (168 GPCRs [9]): ~-14%
activity at 10 µM (168 GPCRs [10]): -2.6%
activity at 1 µM (168 GPCRs [11]): ~13%
activity at 10 µM (168 GPCRs [12]): ~-2%
activity at 10 µM (168 GPCRs [13]): -0.3%
activity at 10 µM (168 GPCRs [14]): 8.8%
activity at 1 µM (168 GPCRs [15]): ~6%
activity at 10 µM (168 GPCRs [16]): ~7%
activity at 1 µM (168 GPCRs [17]): ~9%
activity at 10 µM (168 GPCRs [18]): ~15%
activity at 1 µM (168 GPCRs [19]): ~8%
activity at 10 µM (168 GPCRs [20]): -6.8%
activity at 10 µM (168 GPCRs [21]): ~7%
activity at 1 µM (168 GPCRs [22]): 25.7%
activity at 1 µM (168 GPCRs [23]): ~-11%
activity at 10 µM (168 GPCRs [24]): -13.6%
activity at 10 µM (168 GPCRs [25]): -38.3%
activity at 1 µM (168 GPCRs [26]): ~-10%
